The text below walks through data of article PMC6152678, “In Vitro Comparative Study of the Inhibitory Effects of Mangiferin and Its Aglycone Norathyriol towards UDP-Glucuronosyl Transferase (UGT) Isoforms” (Molecules : A Journal of Synthetic Chemistry and Natural …, 2017).

What is called inhibition is the change of the read-out against control, counted positive when it falls.

The target of one data set is T1, UGT2B7 (Homo sapiens, UniProt P16662).
T1 construct: purchased BD Gentest Corp. (Woburn, MA, USA); host or cells: baculovirus-infected insect cells
T1 sequence (P16662 24-529): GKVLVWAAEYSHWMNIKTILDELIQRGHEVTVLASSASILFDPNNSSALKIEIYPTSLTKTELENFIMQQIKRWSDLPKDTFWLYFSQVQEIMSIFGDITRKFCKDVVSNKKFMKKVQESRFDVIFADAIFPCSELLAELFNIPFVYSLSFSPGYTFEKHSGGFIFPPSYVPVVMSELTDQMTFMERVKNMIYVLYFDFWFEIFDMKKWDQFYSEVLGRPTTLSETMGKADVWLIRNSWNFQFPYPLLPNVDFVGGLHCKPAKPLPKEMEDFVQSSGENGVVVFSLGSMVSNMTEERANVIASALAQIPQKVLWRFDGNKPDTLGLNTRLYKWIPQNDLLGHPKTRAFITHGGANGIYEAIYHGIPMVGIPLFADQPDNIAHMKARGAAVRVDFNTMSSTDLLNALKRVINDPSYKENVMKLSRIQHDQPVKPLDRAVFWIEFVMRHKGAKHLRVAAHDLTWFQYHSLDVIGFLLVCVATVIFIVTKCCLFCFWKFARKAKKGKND
The experiment in a line: Inhibition of recombinant UGT-catalyzed 4-MU glucuronidation. The format is biochemical. Particulars: pH 7.4, probe 4-methylumbelliferone (4-MU), 350 μM, 100 μM compound, 4-MU probe substrate, negative = activation.

A further data set concerns the target T2, UGT2B17 (Homo sapiens, UniProt O75795).
T2 construct: purchased BD Gentest Corp. (Woburn, MA, USA); host or cells: baculovirus-infected insect cells
T2 sequence (O75795 24-530): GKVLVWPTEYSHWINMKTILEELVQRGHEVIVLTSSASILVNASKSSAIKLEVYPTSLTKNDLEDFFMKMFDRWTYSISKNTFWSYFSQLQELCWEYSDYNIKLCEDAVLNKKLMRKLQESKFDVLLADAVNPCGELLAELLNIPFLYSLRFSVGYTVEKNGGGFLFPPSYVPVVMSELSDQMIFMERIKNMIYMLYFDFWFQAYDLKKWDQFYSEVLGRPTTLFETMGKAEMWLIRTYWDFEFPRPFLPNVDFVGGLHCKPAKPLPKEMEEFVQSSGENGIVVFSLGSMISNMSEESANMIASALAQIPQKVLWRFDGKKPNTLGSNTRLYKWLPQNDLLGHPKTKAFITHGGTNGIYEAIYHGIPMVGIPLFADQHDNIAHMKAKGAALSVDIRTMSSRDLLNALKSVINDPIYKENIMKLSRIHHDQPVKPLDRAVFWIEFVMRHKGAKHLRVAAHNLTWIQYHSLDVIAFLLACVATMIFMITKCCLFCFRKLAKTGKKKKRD
The data set is described as above. Particulars: pH 7.4, probe 4-methylumbelliferone (4-MU), 2000 μM, 100 μM compound, 4-MU probe substrate, negative = activation. The class given is biochemical.

Each structure is given as a SMILES string.

On to `O=c1c2cc(O)c(O)cc2oc2cc(O)c([C@@H]3O[C@H](CO)[C@@H](O)[C@H](O)[C@H]3O)c(O)c12` [MGF, 1,3,6,7-tetrahydroxyxanthone-C-2-β-D-glucoside], for which the values for the inhibition at 120 min, 100 µM on UGT2B7 and on UGT2B17 were -11.2% and -106%, respectively.

As to `O=c1c2cc(O)c(O)cc2oc2cc(O)cc(O)c12` [NTR, 1,3,6,7-tetrahydroxyxanthone], the results for the inhibition at 120 min, 100 µM on UGT2B7 and at UGT2B17 were 31.8% and 48.6%, respectively.
